This test has as its target T1, human Prostaglandin D Synthase (GST2) (Homo sapiens, UniProt O60760).
T1 construct: the open reading frame of human Prostaglandin D Synthase was amplified from cDNA; made in house; host or cells: E. coli TOP10F'
Put plainly: Homogeneous biochemical assay of human Prostaglandin D Synthase (GST2) based on its glutathion-S-transferase activity (GSH conjugation to monochlorobimane, fluorescence). Particulars: given beside the compound name in Examples 1 to 167; read-out: Potency Range (GST2 IC50). The essentials: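 N-His-tagged human PGD synthase from E. coli, assayed via its GST activity: GSH conjugation to monochlorobimane in 50 mM MES/KOH pH 6.1, 0.7 mM GSH, 2 mM MgCl2. Compounds at final picomolar to triple-digit micromolar concentrations.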

The values that follow come from patent US20100234377A1 (priority 2007, published 2010).

Each structure is given as a SMILES string.

T1 sequence (O60760 whole entry): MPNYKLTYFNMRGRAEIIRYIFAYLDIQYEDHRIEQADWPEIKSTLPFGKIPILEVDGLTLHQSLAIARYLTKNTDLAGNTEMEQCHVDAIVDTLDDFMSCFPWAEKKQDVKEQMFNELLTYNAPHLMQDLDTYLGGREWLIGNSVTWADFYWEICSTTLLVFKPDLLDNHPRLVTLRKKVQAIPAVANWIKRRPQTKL

The term IC50 denotes the concentration needed to halve the response being measured. With `O=C(Nc1ccc(NS(=O)(=O)C2CC2)cc1)N1CCN(C(=O)c2cccc(F)c2)CC1` [Compound 127, 4-(3-Fluoro-benzoyl)-piperazine-1-carboxylic acid (4-cyclopropanesulfonylamino-phenyl)-amide], the IC50 was in the range of 11 to 100 nM. Next, `O=C(Nc1ccc(NS(=O)(=O)c2ccc(F)cc2)cc1)N1CCN(C(=O)c2cccc(F)c2)CC1` [Compound 128, 4-(3-Fluoro-benzoyl)-piperazine-1-carboxylic acid [4-(4-fluoro-benzenesulfonylamino)-phenyl]-amide]: 11 to 100 nM; `CS(=O)(=O)N(c1ccc(NC(=O)N2CCN(C(=O)c3cccc(F)c3)CC2)cc1)S(C)(=O)=O` [Compound 129, N-{4-[bis(methylsulfonyl)amino]phenyl}-4-(3-fluorobenzoyl)piperazine-1-carboxamide]: 11 to 100 nM; `O=C(Nc1cccc(NS(=O)(=O)c2ccc(F)cc2)c1)N1CCN(C(=O)c2cccc(F)c2)CC1` [Compound 130, 4-(3-Fluoro-benzoyl)-piperazine-1-carboxylic acid [3-(4-fluoro-benzenesulfonylamino)-phenyl]-amide]: 101 to 1000 nM. Next, `O=C(Nc1cccc(NS(=O)(=O)C2CC2)c1)N1CCN(C(=O)c2cccc(F)c2)CC1` [Compound 131, 4-(3-Fluoro-benzoyl)-piperazine-1-carboxylic acid (3-cyclopropanesulfonylamino-phenyl)-amide]: 101 to 1000 nM.

Turning to `O=C(Nc1ccc(NS(=O)(=O)C2CC2)cc1)N1CCN(C(=O)c2cc(F)ccc2F)CC1` [Compound 132, 4-(2,5-Difluoro-benzoyl)-piperazine-1-carboxylic acid (4-cyclopropanesulfonylamino-phenyl)-amide], the IC50 fell in the range of 101 to 1000 nM.

As to `CS(=O)(=O)Nc1ccc(NC(=O)N2CCN(C(=O)c3cc(F)ccc3F)CC2)cc1` [Compound 133, 4-(2,5-Difluoro-benzoyl)-piperazine-1-carboxylic acid (4-methanesulfonylamino-phenyl)-amide], the IC50 was in the range of 101 to 1000 nM. Next, `O=C(Nc1ccc([N+](=O)[O-])c(F)c1)N1CCN(C(=O)c2cccc(F)c2)CC1` [Compound 134, 4-(3-Fluoro-benzoyl)-piperazine-1-carboxylic acid (3-fluoro-4-nitro-phenyl)-amide]: 101 to 1000 nM; `O=C(Nc1ccc(-c2nnn[nH]2)cc1)N1CCN(C(=O)c2cccc(F)c2)CC1` [Compound 135, 4-(3-Fluoro-benzoyl)-piperazine-1-carboxylic acid [4-(1H-tetrazol-5-yl)-phenyl]-amide]: 11 to 100 nM. Next, `Nc1ccc2nc(NC(=O)N3CCN(C(=O)c4cccc(F)c4)CC3)sc2c1` [Compound 136, 4-(3-Fluoro-benzoyl)-piperazine-1-carboxylic acid (6-amino-benzothiazol-2-yl)-amide]: 11 to 100 nM.

Regarding `O=C(Nc1nc2ccc(NS(=O)(=O)C3CC3)cc2s1)N1CCN(C(=O)c2cccc(F)c2)CC1` [Compound 137, 4-(3-Fluoro-benzoyl)-piperazine-1-carboxylic acid (6-cyclopropanesulfonylamino-benzothiazol-2-yl)-amide], the IC50 is 11 to 100 nM. Next, `O=C(O)c1ccc2nc(NC(=O)N3CCN(C(=O)c4cccc(F)c4)CC3)sc2c1` [Compound 138, 2-{[4-(3-Fluoro-benzoyl)-piperazine-1-carbonyl]-amino}-benzothiazole-6-carboxylic acid]: 11 to 100 nM; `O=C(Nc1nc2ccc(C(=O)N3CCOCC3)cc2s1)N1CCN(C(=O)c2cccc(F)c2)CC1` [Compound 139, 4-(3-Fluoro-benzoyl)-piperazine-1-carboxylic acid [6-(morpholine-4-carbonyl)-benzothiazol-2-yl]-amide]: 11 to 100 nM; `O=C(Nc1ccc2nc(NC(=O)N3CCN(C(=O)c4cccc(F)c4)CC3)sc2c1)c1ccccn1` [Compound 140, 4-(3-Fluoro-benzoyl)-piperazine-1-carboxylic acid {6-[(pyridine-2-carbonyl)-amino]-benzothiazol-2-yl}-amide]: 11 to 100 nM. Next, `NC(=O)c1ccc2nc(NC(=O)N3CCN(C(=O)c4cccc(F)c4)CC3)sc2c1` [Compound 141, 2-{[4-(3-Fluoro-benzoyl)-piperazine-1-carbonyl]-amino}-benzothiazole-6-carboxylic acid amide]: 11 to 100 nM. Next, `CC(C)c1noc(-c2ccc(NC(=O)N3CCN(C(=O)c4cccc(F)c4)CC3)cc2)n1` [Compound 142, 4-(3-Fluoro-benzoyl)-piperazine-1-carboxylic acid [4-(3-isopropyl-[1,2,4]oxadiazol-5-yl)-phenyl]-amide]: 101 to 1000 nM. For `O=C(Nc1ccc(-n2cccn2)c(F)c1)N1CCN(C(=O)c2cccc(F)c2)CC1` [Compound 143], the IC50 was in the range of 101 to 1000 nM. Consider `O=C(Nc1ccc(-n2ccnc2)c(F)c1)N1CCN(C(=O)c2cccc(F)c2)CC1` [Compound 144], for which the IC50 fell in the range of 101 to 1000 nM.

As to `O=C(Nc1ccc(-n2cncn2)c(F)c1)N1CCN(C(=O)c2cccc(F)c2)CC1` [Compound 145], the IC50 was in the range of 101 to 1000 nM. Next, `O=C(Nc1ccc(N2CCN(c3ccccn3)CC2)c(F)c1)N1CCN(C(=O)c2cccc(F)c2)CC1` [Compound 146, 4-(3-Fluoro-benzoyl)-piperazine-1-carboxylic acid [3-fluoro-4-(4-pyridin-2-yl-piperazin-1-yl)-phenyl]-amide]: 11 to 100 nM. Next, `O=C(Nc1ccc(-c2cccnc2)c(F)c1)N1CCN(C(=O)c2cccc(F)c2)CC1` [Compound 147, 4-(3-Fluoro-benzoyl)-piperazine-1-carboxylic acid (3-fluoro-4-pyridin-3-yl-phenyl)-amide]: 11 to 100 nM.

Regarding `O=C(Nc1ccc(C(F)(F)F)cc1)N1CCN(C(=O)c2cc(F)ccc2F)CC1` [Compound 148, 4-(2,5-Difluoro-benzoyl)-piperazine-1-carboxylic acid (4-trifluoromethyl-phenyl)-amide], the IC50 is 101 to 1000 nM. As to `O=C(Nc1ccc(C(F)(F)F)cc1)N1CCN(C(=O)c2cccc(F)c2)CC1` [Compound 149, 4-(3-Fluoro-benzoyl)-piperazine-1-carboxylic acid (4-trifluoromethyl-phenyl)-amide], the IC50 is 101 to 1000 nM. Next, `O=C(c1cccc(F)c1)N1CCN(C(=S)Nc2ccc(N3CCOCC3)nc2)CC1` [Compound 151, 4-(3-Fluoro-benzoyl)-piperazine-1-carbothioic acid (6-morpholin-4-yl-pyridin-3-yl)-amide]: 11 to 100 nM. Next, `Cc1ccccc1C(=O)N1CCN(C(=S)Nc2ccc(N3CCOCC3)nc2)CC1` [Compound 152, 4-(2-Methyl-benzoyl)-piperazine-1-carbothioic acid (6-morpholin-4-yl-pyridin-3-yl)-amide]: 11 to 100 nM; `O=C(c1cccc([N+](=O)[O-])c1)N1CCN(C(=S)Nc2ccc(N3CCOCC3)nc2)CC1` [Compound 153, 4-(3-Nitro-benzoyl)-piperazine-1-carbothioic acid (6-morpholin-4-yl-pyridin-3-yl)-amide]: 101 to 1000 nM; `NC(=O)c1cccc(C(=O)N2CCN(C(=O)Nc3ccc(F)cc3)CC2)c1` [Compound 157, 4-(3-Carbamoyl-benzoyl)-piperazine-1-carboxylic acid (4-fluoro-phenyl)-amide]: 101 to 1000 nM.
